This note sets out measurements from patent publication US20120270929A1, “MODULATION OF TTC39 EXPRESSION TO INCREASE HDL” (ISIS Pharmaceuticals, Inc., priority 2009, published 2012).

What all share (assay type): in vivo, mouse
Series [1] can be described thus: Plasma cholesterol and triglycerides in LDLr-/- mice. Particulars: 50 mg/kg/week. The protocol: The LDLr knockout mice model is a model for familial hypercholesterolemia developed by Ishibashi et al (J Clin Invest 1993; 92: 883-893). On a normal chow diet, the mice have an average total cholesterol of 250 mg/dL due to increases in LDL and VLDL cholesterol. This model is therefore highly susceptible to atherosclerosis (Ishibashi et al Proc Natl Acad Sci USA 1994; 91: 4431-4435).
(§1) Four groups of five male mice each were injected with a total of 1.5, 5, 15, or 50 mg/kg/week of ISIS 447118 for 6 weeks. A group of five mice was injected with a total of 50 mg/kg/week of control oligonucleotide ISIS 141923 ([…], designated herein as SEQ ID NO: 112, which has no known murine target) for 6 weeks. A control group of five mice was injected with phosphate buffered saline (PBS) twice a week for 6 weeks. Plasma samples were obtained before the start of treatment, at week 3 and at week 6. At the end of the treatment period, the mice were euthanized. Plasma and tissue samples were obtained for further analysis.
To investigate the effect of inhibition of TTC39B on triglycerides and cholesterol levels in the plasma, samples were collected on weeks 0, 3, and 6, and total plasma cholesterol, LDL cholesterol, HDL cholesterol, and triglycerides were analyzed on an Olympus AU400e Analyzer.

Series [2] relates to Apolipoprotein A-IV (ApoA4) mRNA. Put plainly: PCR microarray analysis of liver, LDLr-/- mice: ApoA4. The note with it: 50 mg/kg, 6 weeks. Here is the method:
as §1
(§2) Liver samples from the mice groups were analyzed using a commercial kit for PCR microarray analysis (SA Biosciences Corp., MD), according to the manufacturer's instructions. Genes involved in lipoprotein and cholesterol metabolism were compared with the PBS control.

For series [3], the system named is Low density lipoprotein receptor (Ldlr) mRNA. The experiment in a line: PCR microarray analysis of liver, LDLr-/- mice: Ldlr. The note with it: 50 mg/kg, 6 weeks. The protocol:
as §1, §2

Series [4] deals with Oxysterol binding protein-like 5 (Osbpl5) mRNA. Put plainly: PCR microarray analysis of liver, LDLr-/- mice: Osbpl5. The note with it: 50 mg/kg, 6 weeks. Here is the method:
as §1, §2

In series [5] the test system is Sterol O-acyltransferase 2 (Soat2) mRNA. Put plainly: PCR microarray analysis of liver, LDLr-/- mice: Soat2. Particulars: 50 mg/kg, 6 weeks. Here is the method: as §1, §2
The test system of the next series is Stabilin 1 (Stab1) mRNA. Put plainly: PCR microarray analysis of liver, LDLr-/- mice: Stab1. The note with it: 50 mg/kg, 6 weeks. Here is the method: as §1, §2
The test system of series [6] is Farnesyl diphosphate synthetase (Fdps) mRNA. Put plainly: PCR microarray analysis of liver, LDLr-/- mice: Fdps. Particulars: 50 mg/kg, 6 weeks. The protocol:
as §1, §2

Series [7] concerns Insulin induced gene 1 (Insig1) mRNA. Put plainly: PCR microarray analysis of liver, LDLr-/- mice: Insig1. Particulars: 50 mg/kg, 6 weeks. Here is the method:
as §1, §2

Series [8] has as its system Mevalonate (diphospho) decarboxylase (Mvd) mRNA. The experiment in a line: PCR microarray analysis of liver, LDLr-/- mice: Mvd. The note with it: 50 mg/kg, 6 weeks. Here is the method:
as §1, §2

Series [9] concerns Proprotein convertase subtilisin/kexin type 9 (Pcsk9) mRNA. The experiment in a line: PCR microarray analysis of liver, LDLr-/- mice: Pcsk9. Particulars: 50 mg/kg, 6 weeks. The protocol:
as §1, §2

Turning to “CCTTCCCTGAAGGTTCCTCC (chemistry not given here) [ISIS 141923, reference compound]”, in [1], the “HDL cholesterol % increase on week 6 (% change over baseline)” value came to 43%. In [1] (Week 0 (before treatment)), this sequence displayed an HDL cholesterol levels of 76 mg/dL, an LDL cholesterol levels of 100 mg/dL, a total cholesterol levels of 206 mg/dL and a triglyceride levels of 97 mg/dL. In series [1] (Week 3), this sequence registered an HDL cholesterol levels of 78 mg/dL, an LDL cholesterol levels of 100 mg/dL, a total cholesterol levels of 204 mg/dL and a triglyceride levels of 116 mg/dL. Besides, in series [1] (Week 6), the HDL cholesterol levels is given as 108 mg/dL, the LDL cholesterol levels was 112 mg/dL, the total cholesterol levels is listed as 227 mg/dL and the triglyceride levels amounted to 143 mg/dL. In addition, in series [2], the “ApoA4 fold increase/decrease relative to PBS group” value is 0.87 fold. Further, the “Ldlr fold increase/decrease relative to PBS group” value in [3] turned out to be 1.36 fold. Besides, the “Osbpl5 fold increase/decrease relative to PBS group” value in [4] is listed as 1.21 fold. Besides, the “Soat2 fold increase/decrease relative to PBS group” value in [5] turned out to be 0.95 fold. Also, in the series with Stabilin 1 (Stab1) mRNA, the “Stab1 fold increase/decrease relative to PBS group” value came to 1.12 fold. Besides, the “Fdps fold increase/decrease relative to PBS group” value in series [6] is 1.21 fold. Besides, the “Insig1 fold increase/decrease relative to PBS group” value in [7] was determined as 1.13 fold. Moreover, the “Mvd fold increase/decrease relative to PBS group” value in [8] is on record as 1.25 fold. In addition, the “Pcsk9 fold increase/decrease relative to PBS group” value in series [9] came to 1.09 fold.
